US12384777B2 (Tay Therapeutics Limited, priority 2019, dated 2025)
Read-outs that look alike come from different tables or passages of the source. Values belong to the compound of their own block, whether it stands above or below them.

Experiments:
human liver hepatocytes = test: Intrinsic clearance in human liver hepatocytes; type: in vitro ADME; conditions: human cryopreserved hepatocytes, 0.5 μM test compound
Experimental: Vials of human cryopreserved hepatocytes, supplied by Life Technologies, were thawed according to manufacturer's instructions and cells re-suspended in Williams Medium E (WME) containing cell maintenance supplement pack (CM4000, Life Technologies). Hepatocytes were incubated in suspension (0.5 million cells/mL) in 48 well non-collagen coated cell culture plates for 10 min at 37° C., 5% CO2. Upon addition of an equal volume of supplemented WME containing 1 μM test compound, an aliquot of incubation solution was removed to acetonitrile containing internal standard (final concentration 0.5 μM test compound and a cell density of 0.25 million cells/mL). Similarly, aliquots were removed at 3, 6, 9, 15, 30, 45, 60, 90 and 120 min. 100 μL of 80:20 water:acetonitrile was added to all samples and the analysis plate was centrifuged for 10 min at RT prior to injection and analysis of samples by UPLC-MS/MS. The response (area ratio of test compound to internal standard) was plotted against time using an exponential decay model from which rate of disappearance was calculated.

[1] = Hydrolytic stability at a range of pHs; type: physicochemical; conditions: 60° C., 6 days
Experimental: To test the hydrolytic stability a 1 mg/mL solution of test materials was made in DMSO (0.1% solution). To 300 μL of each solution in a HPLC vials was added 1200 μL of one of the following: pH 4.0 buffer—left at 60° C. for 5 days. Samples taken t=0 hr and 6 days pH 5.5 buffer—left at 60° C. for 5 days. Samples taken t=0 hr and 6 days pH 7.4 buffer—left at 60° C. for 5 days. Samples taken t=0 hr and 6 days A 100 μL aliquot was taken at each time point and added to 900 μL of DMSO. This sample was used to determine % decomposition.
% decomposition was measured with a Bruker MicrOTOF II focus ESI Mass Spectrometer connected in parallel to Dionex Ultimate 3000 RSLC system with diode array detector.

[2] = Stability in human skin S9 fraction; type: in vitro ADME; conditions: 0.3 mg/mL S9, NADPH, UDPGA, 0.5 μM compound; for half-life at 0.5 μM: human, human skin S9 fraction, pH 7.4, read-out: T1/2 (min) in human skin S9 fractions
Experimental: An incubation mixture was prepared containing 50 mM potassium phosphate buffer, pH 7.4), 0.3 mg/mL human skin S9 (Sekisui Xenotech), NADPH (final conc 0.8 mg/mL), UDPGA (final conc 0.16 mg/mL) and warmed to 37° C. for 5 min. The reaction was initiated upon addition of test compound (final concentration 0.5 μM). Immediately, at time zero, then at 3, 6, 15, 30, 60, 120 and 180 min, an aliquot (50 μL) of the incubation mixture was removed and mixed with acetonitrile (100 μL) to terminate the reaction. Internal standard was added to all samples, the samples centrifuged to sediment precipitated protein and the plates then sealed prior to UPLC-MS/MS analysis using a Quattro Premier XE (Waters corporation, USA).
Grafit (Erithacus Ltd) was used to calculate the exponential decay and consequently the rate constant (k) from the ratio of peak area of test compound to internal standard at each timepoint. The half life (T1/2) of each test compound was determined using the following equation: T1/2=0.693/k

BRD4 BD1 = BRD4 BD1 (Homo sapiens (Human), UniProt O60885); test: Bromodomain binding assay (T7 phage display, qPCR), BRD4 BD1
Experimental: (§1) T7 phage strains displaying bromodomains were grown in parallel in 24-well blocks in an E. coli host derived from the BL21 strain. E. coli were grown to log-phase and infected with T7 phage from a frozen stock (multiplicity of infection=0.4) and incubated with shaking at 32° C. until lysis (90-150 min). The lysates were centrifuged (5,000×g) and filtered (0.2 μm) to remove cell debris. Streptavidin-coated magnetic beads were treated with biotinylated small molecule or acetylated peptide ligands for 30 min at RT to generate affinity resins for bromodomain assays. The ligated beads were blocked with excess biotin and washed with blocking buffer (SeaBlock (Pierce), 1% BSA, 0.05% Tween 20, 1 mM DTT) to remove unbound ligand and to reduce non-specific phage binding. Binding reactions were assembled by combining bromodomains, ligated affinity beads, and test compounds in 1× binding buffer (16% SeaBlock, 0.32×PBS, 0.02% BSA, 0.04% Tween 20, 0.004% Sodium azide, 7.9 mM DTT). Test compounds were prepared as 1000× stocks in 100% DMSO and subsequently diluted 1:25 in MEG. The compounds were then diluted directly into the assays such that the final concentrations of DMSO and MEG were 0.1% and 2.4%, respectively. All reactions were performed in polypropylene 384-well plates in a final volume of 0.02 ml. The assay plates were incubated at RT with shaking for 1 hr and the affinity beads were washed with wash buffer (1×PBS, 0.05% Tween 20). The beads were then re-suspended in elution buffer (1×PBS, 0.05% Tween 20, 2 μM non-biotinylated affinity ligand) and incubated at RT with shaking for 30 min. The bromodomain concentration in the eluates was measured by quantitative polymerase chain reaction (qPCR).
(§2) An 11-point 3-fold serial dilution of each test compound was prepared in 100% DMSO at 1000× final test concentration. All compounds were distributed by acoustic transfer (non-contact dispensing) in 100% DMSO. The compounds were then diluted directly into the assays such that the final concentration of DMSO was 0.09%. Most dissociation constants were determined using a compound top concentration=10,000 nM. If the initial dissociation constant determined was <0.169 nM (the lowest concentration tested), the measurement was repeated with a serial dilution starting at a lower top concentration.
(§3) The same bromodomain assay procedure as that outlined above was used. Example compounds were screened at 30 times their Kd, and results for primary screen binding interactions are reported as ‘% Ctrl’, where lower numbers indicate stronger hits in the matrix.

[3] = Solubility in topical formulations; type: physicochemical; conditions: thermodynamic from solid
Experimental: The solubilities of solid exemplary compounds were determined in a selection of solvents and solvent combinations (Transcutol, 50:50 Transcutol:water, Labrasol, propylene glycol and 1:5:4 ethanol:propylene glycol:water), after equilibration. An appropriate volume of each combination was added to a manual weighing of solid compound to provide a 20 mg/mL concentration. The resulting suspension was shaken at 1000 rpm for 5 hr at 32° C. before centrifugation at 13,000×g for 10 min to pellet any precipitate. The supernatant solution was removed and inserted into a HPLC vial and quantified by HPLC-UV against a calibration of a known concentration of the compound in DMSO.

[4] = tested on: CD4+ T-cells stimulated by CD2, CD3 and CD28 antibodies; test: Cellular activity IL-4: reduction of IL-4 levels in activated CD4+ T-cells; type: cell-based, human; conditions: Homo sapiens, T-cell
Experimental: • 1. CD4^+ T-cells are isolated from cryopreserved human peripheral blood mononuclear cells (PBMCs) using EasySep™ Kit (Cat. No. 17952, Stemcell Technologies). • 2. CD2, CD3 and CD28 antibodies coated beads from T cell Activation/Expansion Kit (Cat. No. 130-091-441, Miltenyi Biotec) are added to the CD4^+ T-cells at a bead-to-cell ratio of 1:2. • 3. CD4^+ T-cells along with the beads are seeded at 2×10^5 cells/well in a round bottom 96-well plate and treated with different compounds and controls in a total volume of 200 μl. • 4. The cells are cultured for 48 hrs at 37° C., 5% CO2. • 5. Supernatant is collected and IL-4 is analysed by ELISA.

BRDT(1) = BRDT(1) (Homo sapiens (Human), UniProt Q58F21); test: Bromodomain binding assay, BRDT(1)
Experimental: as §1
(§4) An 11-point 3-fold serial dilution of each test compound was prepared in 100% DMSO at 1000× final test concentration. […] Most dissociation constants were determined using a compound top concentration=10,000 nM. If the initial dissociation constant determined was <0.169 nM (the lowest concentration tested), the measurement was repeated with a serial dilution starting at a lower top concentration. […]

BRD2(1) = BRD2(1) (Homo sapiens (Human), UniProt P25440); test: Bromodomain binding assay, BRD2(1)
Chain of BRD2(1) (P25440 74-180): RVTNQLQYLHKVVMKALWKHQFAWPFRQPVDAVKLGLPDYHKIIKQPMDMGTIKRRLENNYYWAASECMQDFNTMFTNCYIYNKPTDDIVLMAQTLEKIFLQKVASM
Experimental: as §1, §4

BRD3(1) = BRD3(1) (Homo sapiens (Human), UniProt Q15059); test: Bromodomain binding assay, BRD3(1)
Chain of BRD3(1) (Q15059 34-140): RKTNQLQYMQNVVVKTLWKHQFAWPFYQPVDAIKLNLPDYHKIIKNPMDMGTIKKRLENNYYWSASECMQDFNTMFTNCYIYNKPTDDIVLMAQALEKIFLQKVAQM
Experimental: as §1, §4

BRD2(2) = BRD2(2) (Homo sapiens (Human), UniProt P25440); test: Bromodomain binding assay, BRD2(2)
Chain of BRD2(2) (P25440 344-453): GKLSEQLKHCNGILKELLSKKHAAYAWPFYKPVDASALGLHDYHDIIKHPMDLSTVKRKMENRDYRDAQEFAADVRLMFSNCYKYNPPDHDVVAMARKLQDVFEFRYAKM
Experimental: as §1, §4

BRD3(2) = BRD3(2) (Homo sapiens (Human), UniProt Q15059); test: Bromodomain binding assay, BRD3(2)
Chain of BRD3(2) (Q15059 306-415): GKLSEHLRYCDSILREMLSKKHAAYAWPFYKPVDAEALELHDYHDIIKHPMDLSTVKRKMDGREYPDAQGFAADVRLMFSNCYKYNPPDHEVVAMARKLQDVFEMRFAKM
Experimental: as §1, §4

[5] = tested on: healthy human skin stimulated by a Th2 or Th17 biasing cocktail; test: Th2 and Th17 stimulation of human skin explants, IL-4 / IL-17A mRNA; type: cell-based
Experimental: • 1. Freshly excised healthy human skin tissue from abdominoplasties is defatted, cleaned and sectioned into 7 mm biopsies. • 2. The biopsies are placed in Transwell® inserts with the epidermis apical and exposed to air and the dermis submerged in media in the basal chamber. • 3. The biopsies are pre-treated overnight at 37° C., 5% CO2 with different compounds and controls added to the media in the basal chamber. • 4. The next day, contents of the basal chamber is replaced with fresh media containing the test compound and a stimulation cocktail for either Th2 inflammation (proprietary Medpharm cocktail) or Th17 inflammation (mix of antibodies against CD3, CD28, IL-4, IFNγ and recombinant IL-1β, IL-6, IL-21, TGF-β). • 5. The biopsies are incubated at 37° C., 5% CO2 for a further 24 hrs. • 6. After harvesting, the biopsies are cut in half, and one half is homogenized and used for RNA extraction by standard methods. IL-4 or IL-17A is assessed by RT-qPCR.

BRDT(2) = BRDT(2) (Homo sapiens (Human), UniProt Q58F21); test: Bromodomain binding assay, BRDT(2)
Experimental: as §1, §4

BRD4 BD2 = BRD4 BD2 (Homo sapiens (Human), UniProt O60885); test: Bromodomain binding assay (T7 phage display, qPCR), BRD4 BD2
Experimental: as §1, §2, §3

[6] = Labrasol, oil or lipid, 5 hr at 32° C., read-out: Solubility in LB (Labrasol)
[7] = Transcutol, organic solvent or mixture, 5 hr at 32° C., read-out: Solubility in TC (Transcutol)
[8] = Transcutol:water 1:1, aqueous with cosolvent or surfactant or cyclodextrin, 5 hr at 32° C., read-out: Solubility in TC:water 1:1
[9] = propylene glycol, organic solvent or mixture, 5 hr at 32° C., read-out: Solubility in PG (Propylene glycol)
[10] = 48 hrs, ELISA, read-out: EC50 reduction of IL-4 levels
[11] = read-out: cellular EC50 values, reduction of IL-4 levels
[12] = single point, screened at 30 times Kd, lower numbers indicate stronger hits

- Intrinsic clearance, % Liver Blood Flow (human liver hepatocytes): 88 % Liver Blood Flow
- pH 4.0 % decomposition ([1]; pH 4.0 buffer): 15%
- pH 5.5 % decomposition ([1]; pH 5.5 buffer): 30%
- pH 7.4 % decomposition ([1]; pH 7.4 buffer): 0%
- half-life at 0.5 μM [2]: > 120 min
- Kd (BRD4 BD1; read-out: BRD4 BD1 Kd): 10 to 100 nM
- solubility at 5 hr [3, 6]: 1000 to 10000 µg/mL
- solubility at 5 hr [3, 7]: > 10000 µg/mL
- solubility at 5 hr [3, 8]: 1000 to 10000 µg/mL
- solubility at 5 hr [3, 9]: 1000 to 10000 µg/mL
SMILES: Cn1cc(-c2ccc(O)cc2Oc2ccccc2)c2cc[nH]c2c1=O [Example 2, 4-(4-hydroxy-2-phenoxyphenyl)-6-methyl-1,6-dihydro-7H-pyrrolo[2,3-c]pyridin-7-one]

- Intrinsic clearance, % Liver Blood Flow (human liver hepatocytes): 94 % Liver Blood Flow
- T1/2 (min) in human skin S9 fractions [2]: >120 min
- half-life at 0.5 μM [2]: > 120 min
- Kd (BRD4 BD1; read-out: BRD4 BD1 Kd): ≤ 10 nM
- EC50 [4, 10]: 10 to 100 nM
- EC50 [4, 11]: < 100 nM
- solubility at 5 hr [3, 6]: > 10000 µg/mL
- solubility at 5 hr [3, 7]: > 10000 µg/mL
- solubility at 5 hr [3, 8]: 1000 to 10000 µg/mL
- solubility at 5 hr ([3]; ethanol:propylene glycol:water 1:5:4, aqueous with cosolvent or surfactant or cyclodextrin, 5 hr at 32° C., read-out: Solubility in EtOH:PG:water 1:5:4): 1000 to 10000 µg/mL
- solubility at 5 hr [3, 9]: > 10000 µg/mL
- solubility at 5 hr ([3]; topical formulation solvents and solvent combinations, 32 °C, organic solvent or mixture, read-out: solubilities in the formulations described): > 1000 µg/mL
SMILES: Cn1cc(-c2cc(O)ccc2Oc2ccccc2)c2cc[nH]c2c1=O [Example 6, 4-(5-hydroxy-2-phenoxyphenyl)-6-methyl-1,6-dihydro-7H-pyrrolo[2,3-c]pyridin-7-one]

- Kd (BRDT(1); dose response): > 3000 nM
- BRDT(1) % Ctrl (BRDT(1); [12]): 100 % Ctrl
- Intrinsic clearance, % Liver Blood Flow (human liver hepatocytes): <34 % Liver Blood Flow
- Kd (BRD2(1); dose response): > 3000 nM
- BRD2(1) % Ctrl (BRD2(1); [12]): 100 % Ctrl
- Kd (BRD3(1); dose response): > 3000 nM
- BRD3(1) % Ctrl (BRD3(1); [12]): 85 % Ctrl
- Kd (BRD2(2); dose response): < 10 nM
- BRD2(2) % Ctrl (BRD2(2); [12]): 0.1 % Ctrl
- Kd (BRD3(2); dose response): < 10 nM
- BRD3(2) % Ctrl (BRD3(2); [12]): 2.3 % Ctrl
- Kd (BRDT(2); dose response): < 10 nM
- BRDT(2) % Ctrl (BRDT(2); [12]): 13 % Ctrl
- Kd (BRD4 BD2; dose response, read-out: BRD4(2) Kd): < 10 nM
- Kd (BRD4 BD2; read-out: BRD4 BD2 Kd): ≤ 10 nM
- BRD4(2) % Ctrl (BRD4 BD2; [12]): 8.7 % Ctrl
- Kd (BRD4 BD1; dose response, read-out: BRD4(1) Kd): > 3000 nM
- Kd (BRD4 BD1; read-out: BRD4 BD1 Kd): > 1000 nM
- BRD4(1) % Ctrl (BRD4 BD1; [12]): 90 % Ctrl
- EC50 [4, 10]: 10 to 100 nM
- EC50 [4, 11]: < 100 nM
SMILES: CCNC(=O)c1cc2c(-c3ccn(C)c(=O)c3Oc3c(C)cc(F)cc3C)cn(C)c(=O)c2[nH]1 [Example 41, N-ethyl-4-(3-(4-fluoro-2,6-dimethylphenoxy)-1-methyl-2-oxo-1,2-dihydropyridin-4-yl)-6-methyl-7-oxo-6,7-dihydro-1H-pyrrolo[2,3-c]pyridine-2-carboxamide]
- % reduction in IL-4 mRNA (IL-4) ([5]; 2.5 μM, Th2 biasing cocktail): ++ (> 50% reduction)
- % reduction in IL-17A mRNA (IL-17) ([5]; 2.5 μM, Th17 biasing cocktail): +++ (> 75% reduction)
- reduction of IL-4 or IL-17 levels ([5]; Th2 or Th17 biasing cocktail): > 50%
